According to ChEMBL document CHEMBL1201862, “PubChem BioAssay data set” (2004):
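Results reflect a 48-hour exposure of cells in 96-well plates to compound at five concentrations. At the GI50, growth is halved.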 Calls of active or inactive are those of the source. Cut-off read from the data, not from the text of the source: active = GI50 up to about 1.1 µM and inactive = higher.

Assays:
Assay in all cases: NCI-60 cell line screen, 48 h
MOLT-4 = test system: MOLT-4
HCT-116 = test system: HCT-116
ACHN = test system: ACHN
786-0 = test system: 786-0
SK-MEL-28 = test system: SK-MEL-28
UACC-257 = test system: UACC-257
HCC 2998 = test system: HCC 2998
OVCAR-5 = test system: OVCAR-5
HCT-15 = test system: HCT-15
OVCAR-8 = test system: OVCAR-8
KM12 = test system: KM12
EKVX = test system: EKVX
SF-268 = test system: SF-268
SN12C = test system: SN12C
RXF 393 = test system: RXF 393
U-251 = test system: U-251

Row | Structure (SMILES) | GI50 (MOLT-4) | GI50 (HCT-116) | GI50 (ACHN) | GI50 (786-0) | GI50 (SK-MEL-28) | GI50 (UACC-257) | GI50 (HCC 2998) | GI50 (OVCAR-5) | GI50 (HCT-15) [µM] | GI50 (OVCAR-8) | GI50 (KM12) | GI50 (EKVX) | GI50 (SF-268) | GI50 (SN12C) | GI50 (RXF 393) | GI50 (U-251)
1 | CC(C)(C)C1CCC2c3c([nH]c4ccccc34)C3C(=O)N(c4ccc(Br)cc4)C(=O)C3C2C1 (configuration not stated) | 9.64 µM (inactive) | 32.9 µM (inactive) | 17.7 µM (inactive) | 21.6 µM (inactive) | 48.2 µM (inactive) | 17.8 µM (inactive) | < 0.01 µM (active) | 23.6 µM (inactive) | 13.7 | 21.7 µM (inactive) | 22.3 µM (inactive) | 22 µM (inactive) | 24.5 µM (inactive) | 11.4 µM (inactive) |  | 
2 | CC(C)=CC(=O)Oc1ccc([N+](=O)[O-])cc1 | > 100 µM (inactive) | > 100 µM (inactive) | > 100 µM (inactive) | > 100 µM (inactive) |  | > 100 µM (inactive) | > 100 µM (inactive) | > 100 µM (inactive) | > 100 | > 100 µM (inactive) | 38.3 µM (inactive) | > 100 µM (inactive) | > 100 µM (inactive) | > 100 µM (inactive) | > 100 µM (inactive) | > 100 µM (inactive)
3 | C#CCN(N=O)C(=O)NCCCCC(NC(=O)OCc1ccccc1)C(=O)OCc1ccccc1 (configuration not stated) | 20.7 µM (inactive) | 32.7 µM (inactive) | 61.5 µM (inactive) | > 100 µM (inactive) | 49.5 µM (inactive) | 37.2 µM (inactive) | > 100 µM (inactive) | > 100 µM (inactive) | 33.7 | 38.9 µM (inactive) | > 100 µM (inactive) | > 100 µM (inactive) | 27.6 µM (inactive) | 37.8 µM (inactive) | 25.4 µM (inactive) | 48.9 µM (inactive)
4 | Cc1cc(NS(=O)(=O)c2ccc(NC(=O)c3cccc4c(N)c5ccccc5nc34)cc2)no1 | 28.9 µM (inactive) | 14.5 µM (inactive) | 20 µM (inactive) | 17.9 µM (inactive) | 22.1 µM (inactive) |  |  | 28.8 µM (inactive) | 33 | 21.8 µM (inactive) | 18.9 µM (inactive) | 90.8 µM (inactive) | 21 µM (inactive) | 19.2 µM (inactive) | 16.3 µM (inactive) | 26.6 µM (inactive)
5 | CC1OC(n2cc(Cl)c(=O)[nH]c2=O)C=C(OC(=O)c2ccccc2)C1=O (configuration not stated) | > 100 µM (inactive) |  | > 100 µM (inactive) | > 100 µM (inactive) | > 100 µM (inactive) | > 100 µM (inactive) |  |  | > 100 | > 100 µM (inactive) |  | > 100 µM (inactive) |  | > 100 µM (inactive) | > 100 µM (inactive) | > 100 µM (inactive)
6 | O=C1CCCc2ccc([N+](=O)[O-])c(O)c21 | > 100 µM (inactive) | > 100 µM (inactive) | 48.9 µM (inactive) | 89.9 µM (inactive) | > 100 µM (inactive) | > 100 µM (inactive) | > 100 µM (inactive) | 59.8 µM (inactive) | 72.9 | > 100 µM (inactive) | > 100 µM (inactive) | > 100 µM (inactive) | 69.8 µM (inactive) | 65 µM (inactive) | 55.1 µM (inactive) | 59.3 µM (inactive)
7 | Sc1nnc(/C=C/c2ccc(Cl)c(Cl)c2)[nH]1 | 59.4 µM (inactive) | > 100 µM (inactive) | > 100 µM (inactive) | > 100 µM (inactive) | > 100 µM (inactive) | > 100 µM (inactive) | < 0.01 µM (active) | > 100 µM (inactive) | 87.5 | > 100 µM (inactive) | > 100 µM (inactive) | > 100 µM (inactive) | > 100 µM (inactive) | > 100 µM (inactive) | > 100 µM (inactive) | 58.5 µM (inactive)
8 | N#C/C(=C/c1ccc([N+](=O)[O-])o1)c1ccccc1 | > 100 µM (inactive) | > 100 µM (inactive) | > 100 µM (inactive) | > 100 µM (inactive) | > 100 µM (inactive) | > 100 µM (inactive) | > 100 µM (inactive) | > 100 µM (inactive) |  | > 100 µM (inactive) | > 100 µM (inactive) | > 100 µM (inactive) | > 100 µM (inactive) | > 100 µM (inactive) | > 100 µM (inactive) | > 100 µM (inactive)
9 | COc1nc(=O)cc(N)n1C1OC(CO)C(O)C1O (configuration not stated) | > 100 µM (inactive) | > 100 µM (inactive) | > 100 µM (inactive) | > 100 µM (inactive) | > 100 µM (inactive) | > 100 µM (inactive) | > 100 µM (inactive) | > 100 µM (inactive) | > 100 | > 100 µM (inactive) | > 100 µM (inactive) | > 100 µM (inactive) | > 100 µM (inactive) | > 100 µM (inactive) | > 100 µM (inactive) | > 100 µM (inactive)
10 | COc1ccc(C=O)c(N(C)C(=O)C(C)(C)C)c1 | > 100 µM (inactive) | > 100 µM (inactive) | > 100 µM (inactive) | > 100 µM (inactive) | > 100 µM (inactive) | > 100 µM (inactive) | > 100 µM (inactive) |  | > 100 | > 100 µM (inactive) | > 100 µM (inactive) | > 100 µM (inactive) | > 100 µM (inactive) | > 100 µM (inactive) | > 100 µM (inactive) | > 100 µM (inactive)
11 | C=C(c1ccccc1N)[C@@]1(O)C[C@H](/C(=C\C)CO)C[C@@H]1NCc1ccccc1 | 18.2 µM (inactive) | 15.3 µM (inactive) | 36.8 µM (inactive) | 20.6 µM (inactive) | 18.3 µM (inactive) | 17.9 µM (inactive) | 15.7 µM (inactive) |  | 29 | 24.5 µM (inactive) | 18.2 µM (inactive) | 37.1 µM (inactive) | 30.8 µM (inactive) | 32 µM (inactive) | 16.7 µM (inactive) | 17.2 µM (inactive)
12 | S=P(c1ccccc1)(c1ccccc1)C1(C2(P(=S)(c3ccccc3)c3ccccc3)CC2)CC1 | > 100 µM (inactive) | > 100 µM (inactive) | > 100 µM (inactive) | > 100 µM (inactive) | > 100 µM (inactive) |  | > 100 µM (inactive) | > 100 µM (inactive) | > 100 | > 100 µM (inactive) | > 100 µM (inactive) | > 100 µM (inactive) | > 100 µM (inactive) | > 100 µM (inactive) | > 100 µM (inactive) | > 100 µM (inactive)
13 | Cc1ccccc1NC(=O)C(=O)C(C#N)c1ccc(Cl)cc1 (configuration not stated) | 52.6 µM (inactive) | 34 µM (inactive) | 74.1 µM (inactive) | 28 µM (inactive) | 67.5 µM (inactive) | > 100 µM (inactive) | 19.6 µM (inactive) | 54 µM (inactive) | 18.7 | 46.6 µM (inactive) | 44.6 µM (inactive) | > 100 µM (inactive) | 69.8 µM (inactive) | 44.9 µM (inactive) | > 100 µM (inactive) | 51.1 µM (inactive)
14 | C/C(CC(=O)Nc1cccc(C)c1C)=N\NC(N)=S | > 100 µM (inactive) | 88.7 µM (inactive) | > 100 µM (inactive) | > 100 µM (inactive) | > 100 µM (inactive) | > 100 µM (inactive) | > 100 µM (inactive) | > 100 µM (inactive) | 41.8 | > 100 µM (inactive) | > 100 µM (inactive) | > 100 µM (inactive) | > 100 µM (inactive) | > 100 µM (inactive) | > 100 µM (inactive) | > 100 µM (inactive)
15 | COC(=O)/C1=C/C2CC(/C=C(/c3ccccc3)C(=O)O1)C2 | 17.5 µM (inactive) | 21.8 µM (inactive) | 26.3 µM (inactive) | 37.5 µM (inactive) | 23.8 µM (inactive) | 8.53 µM (inactive) |  |  | 18.8 | 23.1 µM (inactive) | 23.8 µM (inactive) | 40.3 µM (inactive) |  | 24.4 µM (inactive) | 25.1 µM (inactive) | 19.7 µM (inactive)
16 | c1ccc2c(c1)c1ccccc1c1n[se]nc21 | > 100 µM (inactive) |  | 31.8 µM (inactive) | 39 µM (inactive) | > 100 µM (inactive) | > 100 µM (inactive) |  | 35.6 µM (inactive) | > 100 | 50.2 µM (inactive) | > 100 µM (inactive) | 87.9 µM (inactive) | > 100 µM (inactive) | > 100 µM (inactive) | 68.5 µM (inactive) | > 100 µM (inactive)
17 | O=C(CSc1nc(-c2ccccc2)c(-c2ccccc2)[nH]1)N/N=C/c1ccc(O)cc1 | 15.7 µM (inactive) | 22.5 µM (inactive) | 22.1 µM (inactive) | 22.6 µM (inactive) | 32.1 µM (inactive) | 4.86 µM (inactive) | 19.6 µM (inactive) |  |  | 17.2 µM (inactive) | 22.6 µM (inactive) | 30.1 µM (inactive) | 26.6 µM (inactive) | 26.4 µM (inactive) | 24.2 µM (inactive) | 20.3 µM (inactive)
18 | NNC(=O)/C(=C/c1ccc(Cl)c(Cl)c1)NC(=O)c1ccccc1 | 80.5 µM (inactive) | > 100 µM (inactive) | > 100 µM (inactive) | > 100 µM (inactive) | > 100 µM (inactive) | > 100 µM (inactive) | > 100 µM (inactive) | > 100 µM (inactive) |  | > 100 µM (inactive) | > 100 µM (inactive) | > 100 µM (inactive) | > 100 µM (inactive) | > 100 µM (inactive) | > 100 µM (inactive) | > 100 µM (inactive)
19 | NC1=C2C(Br)=CN([C@@H]3O[C@H](CO)[C@@H](O)[C@@H]3O)C2C(=O)N=N1 (some centres not stated) | 0.395 µM (active) | 1.82 µM (inactive) | 9.04 µM (inactive) | 12.4 µM (inactive) | 7.73 µM (inactive) | 22.4 µM (inactive) | 5.02 µM (inactive) | 2.28 µM (inactive) | 1.25 | 0.577 µM (active) | 7.38 µM (inactive) | 5.93 µM (inactive) | 9.51 µM (inactive) | 1.64 µM (inactive) | 2.28 µM (inactive) | 8.79 µM (inactive)
